Measurements from patent publication US20020143047A1, “Methods for treating indomethacin responsive headaches” (priority 2001, published 2002).

Tested on: patient suffering from hemicrania continua and ulceritive colitis
Experiment: Clinical treatment of a patient with hemicrania continua: topical indomethacin patch, and prior oral indomethacin
Format: in vivo, human
Protocol: Typically, the symptom ameliorated by the subject methods is pain associated with the syndrome being treated. In many embodiments, the intensity of pain associated with the syndrome is at least reduced, if not eliminated. Reduction in pain intensity is evaluated according to the protocol described at pages 161-176, and particularly page 172, of “Guidelines for Controlled Trials of Drugs in Cluster Headache,” published by the International Headache Society Committee on Clinical Trials in Cluster Headache. The magnitude of reduction in pain intensity is generally at least about 10%, usually at least about 25% and more usually at least about 50%, where magnitude of reduction may be as high as 75%, 80%, 95% or higher, including a complete cessation of pain, as determined by the assay described above.
The topical formulation described in I, above, was employed to treat a patient suffering from hemicrania continua and ulceritive colitis. The patient suffered from a six-year history of constant right-sided hemicranial pain of mild to moderate severity. Superimposed exacerbations of more intense pain occurred twice weekly and would last up to twelve hours. These painful exacerbations were associated with ipsilateral ptosis, conjunctival injection and lacrimation.
The patient was then treated with the topical application of indomethacin described in I, above, by applying the topical application to the site of maximal pain, i.e. the right forehead and temple. […] The patient was then instructed to reapply the patch twice daily, at twelve hour intervals. […] This was a favorable result compared with other forms of treatment that the patient had previously employed, whereas despite appropriate therapy, the patient's other medical condition worsened in response to oral administration of indomethacin.

[1] = prior treatment, 25 mg, three times daily

COc1ccc2c(c1)c(CC(=O)O)c(C)n2C(=O)c1ccc(Cl)cc1 [indomethacin, Indomethacin]
effect on gastrointestinal symptoms (decreased dosage): continued to aggravate the gastrointestinal symptoms | effect on headache syndrome (decreased dosage): did not abolish the headache syndrome | effect on pain [1]: complete resolution of pain | effect on patient's ulcerative colitis [1]: significant worsening
